Patent publication US20250346580A1, “NOVEL PYRIMIDINYL SULFONAMIDE DERIVATIVES” (Hoffmann-La Roche Inc., priority 2023, published 2025)

Columns and labels:
[1] = target: human GPR17 short isoform (Homo sapiens, UniProt Q13304); assay: GPR17 cAMP assay (hGPR17 cAMP); format: cell-based; details: CHO-K1 cells stably expressing human GPR17 short isoform; antagonist mode with EC80 of MDL29,951, forskolin 15 μM, TR-FRET cAMP
Procedure: GPR17 cAMP Assay Protocol:
CHO-K1 cells stably expressing vector containing untagged human GPR17 short isoform (Roche) were cultured at 37° C./5% CO2 in DMEM (Dulbecco's Modified Eagle Medium):F-12 (1:1) supplemented with 10% foetal bovine serum and 400 μg/ml Geneticin.
Changes in intracellular cyclic adenosine monophosphate (cAMP) levels were quantified using the Nano-TRF Detection Assay kit (Roche Diagnostics, Cat. No. 05214386001). This assay allows for direct cAMP quantification in a homogeneous solution. cAMP is detected based on time-resolved fluorescence energy transfer (TR-FRET) and competitive binding of ruthenylated cAMP and endogenous cAMP to an anti-cAMP monoclonal antibody labeled with AlexaFluor-700. The Ruthenium complex serves as the FRET donor and transfers energy to AlexaFluor-700. The FRET signal is inversely proportional to the cAMP concentration.
CHO-GPR17S cells were detached with Accutase and resuspended in assay buffer consisting of Hank's Balanced Salt Solution (HBSS), 10 mM HEPES (4-(2-hydroxyethyl) piperazine-1-ethanesulfonic acid solution) and 0.1% bovine serum albumin (pH 7.4). The cells were seeded in black 384-well plates (Corning) at a density of 10'000 cells/20 μl assay buffer until the addition of compounds.
Test antagonist compounds were serially diluted in dimethyl sulfoxide (DMSO) and spotted in 384-well plates. The compounds were then diluted in HBSS buffer supplemented with an EC80 concentration of MDL29,951 (3-(2-Carboxy-4,6-dichloroindol-3-yl)propionic acid) (GPR17 agonist) plus 3-Isobutyl-1-methylxanthine (IBMX) (0.5 mM final concentration) and added to the cells at room temperature. Forskolin (15 μM final concentration) was added 5 minutes after the test compounds and the cells were incubated at room temperature for 30 minutes. The assay was stopped by adding cAMP detection mix (containing detergents for cell lysis) for 90 minutes at room temperature.
Cellular cAMP was measured using a Paradigm reader (Molecular Devices). The raw data was used to calculate the FRET signal based on the assay's P-factor as per cAMP kit instructions. The data was normalized to the maximal activity of a reference antagonist and dose response curves were fitted to the percent activity of the test compounds using a sigmoidal dose response model (Genedata Screener).

[2] = Microsome clearance assay, mouse; format: in vitro ADME; details: mouse microsomes 0.5 mg/mL plus NADPH, 37° C., test compound 1 microM; second value of cell
Procedure: (§1) Microsome Clearance Assay Protocol:
(§2) incubations at a test compound of […] in microsomes (0.5 mg/mL) plus cofactor NADPH are performed in 96 well plates at 37° C. on a TECAN (Tecan Group Ltd, Switzerland) automated liquid handling system. The final concentration of the test compound in the incubation is 1 microM. After a 10 minutes preincubation step of the test compound with the microsomes, the enzymatic reaction is started by the addition of cofactors. At 1, 3, 6, 9, 15, 25, 35 and 45 minutes, aliquots of the incubations are removed and quenched with 1:3 (v/v) acetonitrile containing internal standards. Samples are then cooled and centrifuged before analysis of the supernatant by LC-MS/MS.
(§3) Reference compounds were tested against exemplified compounds for their Microsome Clearance.

[3] = Microsome clearance assay, human; format: in vitro ADME; details: human microsomes 0.5 mg/mL plus NADPH, 37° C., test compound 1 microM; first value of cell
Procedure: as §1, §2, §3

[4] = Microsome clearance assay, rat; format: in vitro ADME; details: rat microsomes 0.5 mg/mL plus NADPH, 37° C., test compound 1 microM; third value of cell
Procedure: as §1, §2, §3

Sequence of human GPR17 short isoform (Q13304 29-367): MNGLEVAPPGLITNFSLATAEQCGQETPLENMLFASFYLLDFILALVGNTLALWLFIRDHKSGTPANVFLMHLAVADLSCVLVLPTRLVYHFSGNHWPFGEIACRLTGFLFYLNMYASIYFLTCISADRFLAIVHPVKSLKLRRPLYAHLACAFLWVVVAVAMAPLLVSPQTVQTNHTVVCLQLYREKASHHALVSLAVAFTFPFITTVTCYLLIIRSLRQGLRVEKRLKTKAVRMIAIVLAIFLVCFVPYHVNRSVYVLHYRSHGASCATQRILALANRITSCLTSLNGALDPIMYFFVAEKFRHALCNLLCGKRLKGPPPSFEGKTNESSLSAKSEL

In the case of `COc1nc(NS(=O)(=O)c2c[nH]c(-c3ccccc3)c2)nc(OC)c1OCC(F)F` [Example 1, N-[5-(2,2-difluoroethoxy)-4,6-dimethoxy-pyrimidin-2-yl]-5-phenyl-1H-pyrrole-3-sulfonamide], the IC50 [1] is reported as 476 nM, the “Microsomal Clearance mouse” value [2] is reported as 21 μL/min/mg protein and the “Microsomal Clearance human” value [3] is reported as 10 μL/min/mg protein. For the same compound, the “Microsomal Clearance rat” value [4] was 81 μL/min/mg protein.

With `COc1nc(NS(=O)(=O)c2c[nH]c(-c3ncccc3F)c2)nc(OC)c1OCCF` [Example 7, N-[5-(2-fluoroethoxy)-4,6-dimethoxy-pyrimidin-2-yl]-5-(3-fluoro-2-pyridyl)-1H-pyrrole-3-sulfonamide] the IC50 [1] was 85 nM, the “Microsomal Clearance mouse” value [2] was 12 μL/min/mg protein and the “Microsomal Clearance human” value [3] was 10 μL/min/mg protein. The “Microsomal Clearance rat” value [4] was 32 μL/min/mg protein.

For `COc1nc(NS(=O)(=O)c2c[nH]c(-c3nccs3)c2)nc(OC)c1OC(F)F` [Example 14, N-[5-(difluoromethoxy)-4,6-dimethoxy-pyrimidin-2-yl]-5-thiazol-2-yl-1H-pyrrole-3-sulfonamide], the IC50 [1] was 256 nM, the “Microsomal Clearance mouse” value [2] was 10 μL/min/mg protein and the “Microsomal Clearance human” value [3] was 10 μL/min/mg protein. The “Microsomal Clearance rat” value [4] was 50 μL/min/mg protein.

Work on `COc1nc(NS(=O)(=O)c2c[nH]c(-c3ccccc3F)c2)nc(OC)c1CC(F)F` [Example 37, N-[5-(2,2-difluoroethyl)-4,6-dimethoxy-pyrimidin-2-yl]-5-(2-fluorophenyl)-1H-pyrrole-3-sulfonamide] yielded an IC50 [1] of 130 nM.

Work on `COc1nc(NS(=O)(=O)c2c[nH]c(-c3ccccc3F)c2)nc(OC)c1OCCF` [Example 38, N-[5-(2-fluoroethoxy)-4,6-dimethoxy-pyrimidin-2-yl]-5-(2-fluorophenyl)-1H-pyrrole-3-sulfonamide] yielded an IC50 [1] of 124 nM.

`COc1nc(NS(=O)(=O)c2c[nH]c(-c3ccccc3F)c2)nc(OC)c1OC(F)F` [Example 39, N-[5-(difluoromethoxy)-4,6-dimethoxy-pyrimidin-2-yl]-5-(2-fluorophenyl)-1H-pyrrole-3-sulfonamide] gave an IC50 [1] of 354 nM.

Work on `COc1nc(NS(=O)(=O)c2c[nH]c(-c3ccccc3F)c2)nc(OC)c1OCC(F)F` [Example 40, N-[5-(2,2-difluoroethoxy)-4,6-dimethoxy-pyrimidin-2-yl]-5-(2-fluorophenyl)-1H-pyrrole-3-sulfonamide] yielded an IC50 [1] of 540 nM.

For `COc1nc(NS(=O)(=O)c2c[nH]c(-c3cccn(C)c3=O)c2)nc(OC)c1OCC(F)F` [Example 41, N-[5-(2,2-difluoroethoxy)-4,6-dimethoxy-pyrimidin-2-yl]-5-(2-keto-1-methyl-3-pyridyl)-1H-pyrrole-3-sulfonamide], the IC50 [1] was 1420 nM.

`COc1nc(NS(=O)(=O)c2c[nH]c(-c3cnc(C)s3)c2)nc(OC)c1OCC(F)F` [Example 42, N-[5-(2,2-difluoroethoxy)-4,6-dimethoxy-pyrimidin-2-yl]-5-(2-methylthiazol-5-yl)-1H-pyrrole-3-sulfonamide] gave an IC50 [1] of 1990 nM.

`COc1nc(NS(=O)(=O)c2c[nH]c(-c3ncccn3)c2)nc(OC)c1OCC(F)F` [Example 43, N-[5-(2,2-difluoroethoxy)-4,6-dimethoxy-pyrimidin-2-yl]-5-pyrimidin-2-yl-1H-pyrrole-3-sulfonamide] gave an IC50 [1] of 1250 nM.

`COc1nc(NS(=O)(=O)c2c[nH]c(-c3ncc(C)s3)c2)nc(OC)c1OCC(F)F` [Example 44, N-[5-(2,2-difluoroethoxy)-4,6-dimethoxy-pyrimidin-2-yl]-5-(5-methylthiazol-2-yl)-1H-pyrrole-3-sulfonamide] gave an IC50 [1] of 2670 nM.

In the case of `COc1nc(NS(=O)(=O)c2c[nH]c(-c3cccnn3)c2)nc(OC)c1OCC(F)F` [Example 45, N-[5-(2,2-difluoroethoxy)-4,6-dimethoxy-pyrimidin-2-yl]-5-pyridazin-3-yl-1H-pyrrole-3-sulfonamide], the IC50 [1] is reported as 253 nM.

In the case of `COc1nc(NS(=O)(=O)c2c[nH]c(-c3ncccc3Cl)c2)nc(OC)c1OCC(F)F` [Example 46, 5-(3-chloro-2-pyridyl)-N-[5-(2,2-difluoroethoxy)-4,6-dimethoxy-pyrimidin-2-yl]-1H-pyrrole-3-sulfonamide], the IC50 [1] is reported as 77 nM.

Work on `COc1nc(NS(=O)(=O)c2c[nH]c(-c3ccncn3)c2)nc(OC)c1OCC(F)F` [Example 47, N-[5-(2,2-difluoroethoxy)-4,6-dimethoxy-pyrimidin-2-yl]-5-pyrimidin-4-yl-1H-pyrrole-3-sulfonamide] yielded an IC50 [1] of 1610 nM.

With `COc1nc(NS(=O)(=O)c2c[nH]c(-c3cnccn3)c2)nc(OC)c1OCC(F)F` [Example 48, N-[5-(2,2-difluoroethoxy)-4,6-dimethoxy-pyrimidin-2-yl]-5-pyrazin-2-yl-1H-pyrrole-3-sulfonamide] the IC50 [1] was 1320 nM.

In the case of `COc1nc(NS(=O)(=O)c2c[nH]c(-c3ncccc3C)c2)nc(OC)c1OCC(F)F` [Example 49, N-[5-(2,2-difluoroethoxy)-4,6-dimethoxy-pyrimidin-2-yl]-5-(3-methyl-2-pyridyl)-1H-pyrrole-3-sulfonamide], the IC50 [1] is reported as 122 nM.

For `COc1nc(NS(=O)(=O)c2c[nH]c(C3CCC3)c2)nc(OC)c1OC(F)F` [Example 50, 5-cyclobutyl-N-[5-(difluoromethoxy)-4,6-dimethoxy-pyrimidin-2-yl]-1H-pyrrole-3-sulfonamide], the IC50 [1] was 748 nM.

In the case of `COc1nc(NS(=O)(=O)c2c[nH]c(C3CCC3)c2)nc(OC)c1OCC(F)F` [Example 51, 5-cyclobutyl-N-[5-(2,2-difluoroethoxy)-4,6-dimethoxy-pyrimidin-2-yl]-1H-pyrrole-3-sulfonamide], the IC50 [1] is reported as 304 nM.

With `COc1nc(OCC(F)F)c(F)nc1NS(=O)(=O)c1c[nH]c(-c2ccccc2)c1` [RE-A] the microsomal CLint at 1 µM [2] was 136 µL/min/mg, the microsomal CLint at 1 µM [3] was 21 µL/min/mg and the microsomal CLint at 1 µM [4] was 489 µL/min/mg.

`N#Cc1ccc(NS(=O)(=O)c2c[nH]c(-c3ncccc3F)c2)c(F)c1` [RE-B] gave a microsomal CLint at 1 µM [2] of 43 µL/min/mg, a microsomal CLint at 1 µM [3] of 253 µL/min/mg and a microsomal CLint at 1 µM [4] of 79 µL/min/mg.

In the case of `O=S(=O)(Nc1cc(F)c(Br)cc1F)c1c[nH]c(-c2ncccc2F)c1` [RE-C], the microsomal CLint at 1 µM [2] is reported as 238 µL/min/mg, the microsomal CLint at 1 µM [3] is reported as 107 µL/min/mg and the microsomal CLint at 1 µM [4] is reported as 582 µL/min/mg.

In the case of `O=S(=O)(Nc1cc(F)c(OC(F)F)cc1F)c1c[nH]c(-c2nccs2)c1` [RE-D], the microsomal CLint at 1 µM [2] is reported as 35 µL/min/mg, the microsomal CLint at 1 µM [3] is reported as 10 µL/min/mg and the microsomal CLint at 1 µM [4] is reported as 207 µL/min/mg.
